According to patent EP0417209B1, “COMPOSITIONS AND METHODS FOR ADMINISTERING […] ACTIVE COMPOUNDS” (priority 1988, dated 1990):
Values joined by “and” are separate entries in the source; they are usually repeats but may differ in a detail not shown here. Equal entries are not always repeated.

Experiments:
[1] = cited from earlier work
[2] = Plasma Piroxicam after gavage, combined administration with calcium threonate (Example 12); format: in vivo, Wistar derived albino rats; details: 0.6 mg/kg; for Plasma Piroxicam Concentration: listed as U.S.P. piroxicam; for concentration at 4 h: 4 hours after dosing
Procedure: Ten Wistar derived albino rats, male (375-411 gms), were acclimated for seven days prior to beginning the study. During this period the rats were fed Purina(R) Rodent Chow, watered ad lib and housed in self-flushing stainless-steel cages.
The rats were randomly assigned to two groups of five each and placed in Nalgene(R) cages. Group A received U.S.P. Piroxicam at 0.6 mg/kg, and Group AM received U.S.P. Piroxicam at 0.6 mg/kg plus calcium threonate at 15 mg/kg by gavage. Plasma samples were taken at 4, 6, 8 and 10 hours after dosing for plasma Piroxicam analysis.
Selective HPLC was used to analyze Piroxicam and the data analyzed via SAS. The ANOVA repeated measures procedure was used to determine differences in plasma Piroxicam concentrations between groups.
The average values (X) for each group and time are given. Figure 3 is the plasma profile of the data in Table 4.

[3] = Plasma Piroxicam after gavage, 3-day calcium threonate pretreatment (Example 13); format: in vivo, Wistar derived Albino rats; details: rat, po, 0.6 mg/kg, read-out: Piroxicam Plasma Concentration, average (X)
Procedure: Ten Wistar derived Albino rats, male (420-456 gms), were acclimated for seven days prior to beginning the study. During this period the rats were fed Purina(R) Rodent Chow, watered ad lib and housed in self-flushing stainless-steel cages.
The rats were randomly assigned to two groups of five each. Group A rats were gavaged daily for 3 days with 1.0 ml distilled water prior to beginning the study. Group AM rats were gavaged daily with 15 mg/kg/ml of calcium threonate for 3 days also. Threonate dosages were corrected for increases in body weights daily in insure the 15 mg/kg dose was maintained.
On day 4 the Group A rats were gavaged with Piroxicam at 0.6 mg/kg and group AM rats with 0.6 mg/kg Piroxicam and 15 mg/kg threonate. Plasma samples were taken at 4, 6, 8 and 10 hrs. post-dosing for plasma Piroxicam analysis.
Selective HPLC was used to analyze Piroxicam. The data was analyzed statistically by the SAS procedure. The ANOVA repeated measures procedure was used to determine differences in plasma Piroxicam concentration between groups.
The average (X) values for each group at each time period are given.

[4] = set-up: species or system Wistar derived albino rats; details: rat, in vivo
Procedure: Sixteen Wistar derived albino rats, eight male (242-333 gms) and eight female (295-345 gms) were acclimated for seven days prior to beginning this study. During this period the rats were fed Purina(R) Rodent Chow, watered ad lib and housed in self-flushing stainless-steel cages.
The rats were randomly assigned to two groups of eight each (4 males and 4 females) and placed in metabolism cages. […] Blood samples were taken at 1, 2, 3 and 4 hours after dosing for serum salicylate analysis. Urine was collected if produced at the same time periods for salicylate analysis also. In an effort to maximize urine output the rats were given additional water at 1, 2, 3 and 4 hours by gavage (3 ml).
Blood and urine were collected and analyzed according to the method of Natleson. [Natelson, S. Techniques of Clinical Chemistry, ed. 3. p. 649, Charles C. Thomas, Pub. (1971)]. The study was terminated after the 4 hour collection time.
All statistics were calculated via Statistical Analysis System (SAS Institute, Inc., Box 8000, Cary, NC, 27511) software. The ANOVA (repeated measures model) procedure was used to determine differences in salicylate concentrations between groups.
The average values (X) and standard deviation (SD) for each group and time are given. Figure 1 is a histogram presentation of the data in Table 2. The significance level (P) of the differences between the two groups at each sample time in salicylate concentration in serum are given next to each set of histograms. Figure 2 is the serum salicylate profile over time for both groups of rats, standard deviation bars are included. The initial uptake rate (gastrointestinal) is calculated from the linearized curve in the first hour after dosing. Urine salicylate data is not presented in detail but will be discussed below. The groups are not broken down into male and female because there is no significant difference in the serum salicylate related to the sex of the animal.

movement disorders = experiment: Supplementation of dogs with chronic movement disorders; clinical evaluation and owner's report; format: in vivo; details: given orally
Procedure: One hundred-eighty dogs of varying breed and age were fed 3 x 30 mgs/kg of the product of Example 1. All of these dogs suffered movement disorders.
The effect was measured seven days after supplementation and then again after six weeks. Last evaluation was after more than six months.
A number of different ailments were treated, both acute and chronic. In acute illness where symptoms are rapidly changing, one finds it hard to distinguish between the effect of supplementation and other factors.
Animals with the following chronic ailments were chosen: joint-injuries with secondary permanent changes, arthrosis, spondylosis, hip dysplasia, older dico-prolapse with secondary permanent changes, muscle-atrophy as a result of funtio laesa and senile wear-changes in support and motion-systems.
One hundred dogs qualify under the above criteria. Age or breed was not taken into consideration in this report.

[5] = set-up: species or system men; details: in vivo
Text: The following example describes clinical tests comparing the product of Example 1 (test material) with L-ascorbic acid and citric acid (placebo), measuring intra-cellular and serum ascorbate levels, urinary ascorbate output and urinary oxalate excretion at various times after ingestion of standard doses of the test, L-ascorbic acid and placebo.
Twelve men, ages 27 to 45, were studied.
All were instructed that they should be on a low Vitamin C diet for one week prior to the study (no citrus products and no large amounts of green leafy vegetables).
Following overnight fast, blood and 24-hour urine samples were taken. White blood cell and 24-hour urinary ascorbate and oxalate levels were determined and correlated with serum ascorbate levels.
The 12 men were divided into three groups, and were given the following supplements: • (a) Test Group: 4000 MG* per day of the product Ex. 1. • (b) Ascorbate Group: 3000 MG of L-ascorbic per day. • (c) Citric Acid Group: 3000 MG of citric acid per day. *4000 MG is equivalent in ascorbate (iodine test) to 3000MG L-ascorbic acid.
All 12 continued on a low Vitamin C diet. Blood samples were taken at 0, 4, 8 and 24 hours after morning ingestion of the designated supplements. Urinary 24-hour ascorbate and oxalate levels were determined.
After a wash-out period (varying from two days to several days, due to job situation of participants), the groups were switched to another supplement, as follows: • (a) Test group to citrate group. • (b) Citrate group to ascorbate group. • (c) Ascorbate group to test group.
Supplements were taken at the same level (4000 MG of Ex. 1 product, 3000 MG of L-ascorbic and 3000 MG of citric acid) by all three groups. Blood samples were again drawn at 0, 4, 8 and 24 hours from time of ingestion. A 24-hour urine was also collected by all 12 participants at the end of the period. Again, all specimens were analyzed for their respective concentration of ascorbate and oxalate levels.
The analytical procedures utilized are described in: Clinical Chemistry, Principles and Techniques, edited by Richard J. Henry, Donald D. Cannon and James W. Windelman, Harper and Row, 1974 p. 1393-1398.
Standard Method of Clinical Chemistry, J. S. Roe, edited by Seligson D. New York, Academic Press, 1961, Vo. 3, p. 35.
In the quantitation of 24-hour urine oxalate, an aliquot of urine is shaken with an adsorbent which selectively binds the oxalate. The extracted urine is discarded and the oxalate is eluted from the adsorbent with dilute alkali.
Oxalate is oxidized to hydrogen peroxide and carbon dioxide by oxalate oxidase. The hydrogen peroxide reacts with 3-methyl-2-benzothiozolinone hydrazone (MBTH) and 3 (dimethylamino) benzoic acid (DMAB) in the presence of peroxidase to yield an indamine dye with a maximum absorbance at 590 NM.

Procedure for 3T3 mouse fibroblasts: A control group was incubated with Ringer's as a control.
(5 ul of 14C-L ascorbic acid was added, 10.0 mCi/mmol, 0.05 mCi/ml).
The flasks were then washed with 4 ml HBSS(-) and then were trypsinized with 0.1 ml trypsin-EDTA for 5 minutes. The cells were resuspended in 4 ml ice cold HBSS(-) to stop the enzymatic reaction. The cells were centrifuged for 10 minutes at 1000 G. The cells were then washed and resuspended in 4 ml HBSS(-). The cells were again centrifuged (10 min, 1000G), resuspended in 1.0 ml distilled H2O and sonicated for 90 seconds.
0.5 ml of each sample was used for counting ^14C and 0.5 ml was used for protein analysis using the Bradford method.

CO[C@@]1(NC(=O)Cc2cccs2)C(=O)N2C(C(=O)O)=C(COC(N)=O)CS[C@@H]21 [Cefoxitin]
pKa [1]: 2.2

CN1C(C(=O)Nc2ccccn2)=C(O)c2ccccc2S1(=O)=O [Prioxicam]
Plasma Piroxicam Concentration ([2]; 8 hours after dosing, individual rat, 480 min): 1.9 µg/mL and 1.8 µg/mL and 1.6 µg/mL
Plasma Piroxicam Concentration ([2]; 10 hours after dosing, individual rat, 600 min): 1.4 µg/mL and 1.7 µg/mL and 2.0 µg/mL
concentration at 4 h ([2]; rat, plasma, po, group average, read-out: Plasma Piroxicam Concentration, average (X)): 1800 ng/mL
concentration at 4 h ([2]; rat, plasma, po, piroxicam 0.6 mg/kg (AM: plus threonate 15 mg/kg), individual rat, read-out: Plasma Piroxicam Concentration): 2200 ng/mL
concentration at 6 h ([2]; rat, plasma, po, 6 hours after dosing, group average, read-out: Plasma Piroxicam Concentration, average (X)): 1700 ng/mL
concentration at 8 h ([2]; rat, plasma, po, 8 hours after dosing, group average, read-out: Plasma Piroxicam Concentration, average (X)): 1800 ng/mL
concentration at 8 h ([2]; rat, plasma, po, 8 hours after dosing, individual rat, read-out: Plasma Piroxicam Concentration): 1700 ng/mL
concentration at 10 h ([2]; rat, plasma, po, 10 hours after dosing, group average, read-out: Plasma Piroxicam Concentration, average (X)): 1800 ng/mL
concentration at 10 h ([2]; rat, plasma, po, 10 hours after dosing, individual rat, read-out: Plasma Piroxicam Concentration): 2000 ng/mL
concentration at 4 h ([3]; 4 hrs post-dosing on day 4, group average): 1300 ng/mL
concentration at 6 h ([3]; 6 hrs post-dosing on day 4, group average): 1300 ng/mL
concentration at 8 h ([3]; 8 hrs post-dosing on day 4, group average): 1100 ng/mL
concentration at 10 h ([3]; 10 hrs post-dosing on day 4, group average): 900 ng/mL

C=CCOc1ccc(CC(=O)O)cc1Cl [Alclofenac]
pKa [1]: 4.6

Cc1ccc(Cl)c(Nc2ccccc2C(=O)O)c1Cl [Meclofenamic Acid]
pKa [1]: 4.0

CC(=O)Oc1ccccc1C(=O)O [Aspirin]
elimination rate [4]: 1.30 mg/h
uptake rate [4]: 4.40 mg/h
Urine salicylate ([4]; 60 min): approximately 9.1 mg%

O=C1O[C@H]([C@@H](O)CO)C(O)=C1O [calcium-ascorbate]
symptomatic relief of chronic deforming changes in the joint and skeleton system (movement disorders): Neither calcium-ascorbate alone nor L-ascorbic acid alone give such relief

O=C(O)[C@H](O)[C@@H](O)CO [Calcium-L-Threonate, calcium L-threonate]
uptake of 14C into the cells, average (3T3 mouse fibroblasts; average of three flasks): 1.19 DPM/ug
Uptake Ratio, average (3T3 mouse fibroblasts; average of three flasks, relative to Ringer's control): 1.86
uptake of 14C into the cells (3T3 mouse fibroblasts; single flask, 100 mg% calcium L-threonate 1 hour at 37°C, then 1.25 mg% ascorbic acid 20 minutes): 0.835 DPM/ug and 1.341 DPM/ug and 1.384 DPM/ug
Uptake Ratio (3T3 mouse fibroblasts; single flask, relative to average Ringer's control): 1.30 and 2.09 and 2.16

CC1=C(CC(=O)O)c2cc(F)ccc2/C1=C\c1ccc([S+](C)[O-])cc1 (stereo not shown) [Sulindac]
pKa [1]: 4.7

O=C1O[C@H]([C@@H](O)CO)C(O)=C1O [L-ascorbic, L-ascorbic acid]
7th Day Urine Ascorbate [5]: 459 MG/24 Hour
7th Day Urine Ascorbate % Change [5]: 4583%
24 Hour Urine Ascorbate [5]: 314.5 MG/24 Hour
24 Hour Urine Ascorbate % Change [5]: 2760.6%
24th Hour Urine Oxalate [5]: 63.8 MG/24 Hour
24th Hour Urine Oxalate % Change [5]: 162%
